Values joined by “and” are separate entries in the source; they are usually repeats but may differ in a detail not shown here. Equal entries are not always repeated. Where two headings read alike, the source gives them in different places. Each block holds one compound with its values, some of them ahead of it.
Tests used:
[1] = biological target: T1, OR11A1 (Homo sapiens, UniProt Q9GZK7); assay: CRE-luciferase reporter assay in HEKOlf cells transiently transfected with OR11A1; format: cell-based; conditions: for EC50: Example 4, Table 5, 0.03-100 µM tested; for Potency and efficacy on OR11A1 (comparison between odorants): 0.1 to 100 µM (Figure 6)
T1 construct: expressed in transfected cells; host or cells: HEKOlf (HEK293 stably expressing human Galpha-olf and bovine CNGA2)
T1 sequence (Q9GZK7 1-315): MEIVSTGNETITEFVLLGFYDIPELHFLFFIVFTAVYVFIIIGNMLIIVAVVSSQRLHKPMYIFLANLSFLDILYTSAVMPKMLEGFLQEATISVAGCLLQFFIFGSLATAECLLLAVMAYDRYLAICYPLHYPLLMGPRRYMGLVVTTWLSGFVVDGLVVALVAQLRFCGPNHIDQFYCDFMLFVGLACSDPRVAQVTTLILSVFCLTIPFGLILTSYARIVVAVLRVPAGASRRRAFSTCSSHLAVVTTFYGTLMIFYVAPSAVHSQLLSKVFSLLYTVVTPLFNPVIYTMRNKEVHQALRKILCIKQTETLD
Method: (§1) The experiments were performed using a HEK293 cell line (deposited at the ATCC under accession n° CRL-1573) stably expressing the Gαolf G-protein and the cyclic nucleotide gated ion channel A2 subunit (CNGA2) (herein called HEKOlf). As described by Shirokova et al., 2005, the human Gαolf cDNA was cloned into the mammalian expression vector pPuro and cDNA for the bovine cyclic nucleotide gated ion channel A2 (CNGA2) subunit was cloned into the mammalian expression vector pcDNA3. Both constructs were transfected using Lipofectamine2000 (Invitrogen) following the manufacturer's instructions. Cellular clones stably expressing Gαolf and CNGA2 were obtained by antibiotic selection with 0.5µg/ml Puromycin and 200µg/ml Geneticin.
All odorants were stored in the dark at 4°C upon delivery. They were prepared at 100mM stock solutions using DMSO as a solvent and stored at -20°C. On the day of the experiment the different stock solutions were directly diluted in the assay buffer (Tyrode's buffer) having the following composition: 5mM KCI, 130mM NaCl, 2mM CaCl2, 5mM NaHCO3, 1mM MgCl2, 20mM HEPES, pH7.4.
(§2) All transient transfections were performed with Lipofectamine 2000 (Invitrogen) according to the manufacturer's protocol. 10µl Lipofectamine 2000 were diluted in 500 µl DMEM and incubated for 5 minutes at room temperature. At the same time, 3µg of plasmid DNA were diluted in 500µl DMEM and added to the Lipofectamine 2000 mix to obtain a final volume of 1000µl. After incubation for a further 30 minutes at room temperature, the DNA-Lipofectamine complex was added to 1000µl of a cell suspension containing 1.600.000 cells/ml. Subsequently, 25µl per well of the complete mixture were seeded in black 384 well polystyrene assay plates. 25µl DMEM containing 20% FBS were added to each well 3 hours post-transfection.
(§3) The cDNAs for all olfactory receptors and an empty control vector were co-transfected with pGL4.29 (Promega). The pGL4.29 vector contains a cyclic adenosine monophosphate (cAMP) response element (CRE) that drives the transcription of the luciferase reporter gene luc2P (Photinus pyralis). luc2P is a synthetically-derived luciferase sequence with humanized codon optimization that is designed for high expression and reduced anomalous transcription.
In this assay, the interaction of an odorant with its cognate olfactory receptor leads to the activation of the human Gαolf G-protein. Gαolf is a stimulatory G-protein (Gαs) and activates adenylate cyclase, which converts adenosine triphosphate (ATP) into cAMP. Therefore, the activity of the transcribed luciferase can be used as an indication of olfactory receptor activation. 24 hours post-transfection the medium was removed from the transfected cells and 30 µl Tyrode's buffer containing the diluted odorants were added and incubated for 6 hours at 37°C. The cells were then transferred into an automated fluorometric imaging plate reader (FLIPR^TETRA, Molecular Devices). Subsequently, 25µl of a mixture composed of Triton X-100 and luciferin (1:1) were added. The addition of this mixture led to cell lyses and allowed interaction of the luciferase with its substrate luciferin resulting in a detectable emission of light.
The data obtained from different well replicates were analyzed with Excel, ScreenWorks, and SigmaPlot 10. The responses of each receptor to the odorants were divided by the mean responses of the receptor towards Tyrode's buffer (fold of change FOC1). The specificity of FOC1 was checked by comparing with a second FOC (FOC2) obtained by stimulating a control sample, consisting in an empty expression vector, with the same odorants and Tyrode's buffer. The mean and standard deviation of the resulting fold of change values were calculated and plotted in vertical bar charts or concentration-response curves fitted by the SigmaPlot 10 software.

[2] = biological target: T1, OR11A1; conditions: Adipietro et al., PLoS Genet. 2012; cited from earlier work
[3] = Long-lasting analysis on scent strip (GC-MS with internal standard); format: physicochemical; conditions: for POG (GC-MS signal), sample 1-3 / Ratio POG/IS, sample 1-3: individual scent strips, listed as POG
Method: In one embodiment, the long-lasting analysis is carried out as follows: 50 µl of a 1 % solution of the identified candidate to be tested in alcohol, preferably ethanol, are applied on a scent strip, preferably a cellulosic scent strip, to be dosed. The strip is allowed to dry under ambient laboratory conditions, with normal room air movement, in particular no fan, heating or any mean or device to accelerate evaporation. After different times, each strip or at least the part of the scent strip including the area where the solution of the identified candidate to be tested was applied is extracted using 3 ml of alcohol, preferably ethanol, containing an internal standard, such as methyl decanoate. The extracts are then analyzed by gas chromatography and the result is normalized for the principal molecular ion of the identified candidate using the value for the internal standard.
50 µl of a 1 % solution of patchouli alcohol in ethanol was added by pipette to the tip to a series of different scent strips (SARL H. GRANGER-VEYRON, Privas, France). The strips were allowed to dry under ambient laboratory conditions.
After different times (t0, t0+1hour, t0+2hours, t0+4hours, t0+8hours) the tip of a strip where the 50 µl of the solution of the tested material had been applied was cut and put in a 30 ml bottle and extracted using 3 ml of ethanol, containing 50 µl of methyl decanoate as internal standard (10000 ppm solution in cyclohexane), added to each bottle. Care was taken to ensure the entire area around the point of application was included in the area that was cut and extracted. The content of the bottles was mixed for 30 min on a roller bed, and 2 ml vials were then filled with each sample.
Samples were triplicated, i.e. 3 scent strip tips were analysed for each time point.
In a first series of experiments, samples taken at t0, t0+1hour and t0+2hours were analyzed by GC-MS on a […] gas chromatography column (column BC-WAX (50m * 0.25mm * 0.15µm) which is a GC Sciences column supplied by Interchim, Montluçon, France).
In a second series of experiments, samples taken at t0, t0+4hours and t0+8hours were analyzed by GC-MS on a non-polar gas chromatography column (HP-5MS UI (30m * 0.25mm * 0.25µm) which is an Agilent column supplied by Chromoptic, Courtaboeuf, France).
In Tables 6-11, PA stands for patchouli alcohol and IS stands for the internal standard, i.e. methyl decanoate. When plotting the residual concentration of patchouli on the scent strip as a function of time, the mean ratio at t0 was normalized to 100 and then t0+1h, t0+2h, t0+4h and t0+8h were calculated; t0 being defined as 2 minutes after dosing the 50 µl of the solution of the tested material, which was applied towards the tip of the scent strip.
A "long-lasting" analysis of pogostone was performed as described in Example 5 with samples taken at t0, t0+1hour and t0+2hours.
In Tables 12-14 herebelow, POG stands for pogostone and IS stands for the internal standard, i.e. methyl decanoate. The mean ratio at t0 was normalized as described in Example 5.

[4] = biological target: T2, OR11L1 (Homo sapiens, UniProt Q8NGX0); assay: CRE-luciferase reporter assay in HEKOlf cells transiently transfected with OR11L1; format: cell-based; conditions: Example 3; 10/30/100 µM
T2 construct: expressed in transfected cells; host or cells: HEKOlf (HEK293 stably expressing human Galpha-olf and bovine CNGA2)
T2 sequence (Q8NGX0 1-322): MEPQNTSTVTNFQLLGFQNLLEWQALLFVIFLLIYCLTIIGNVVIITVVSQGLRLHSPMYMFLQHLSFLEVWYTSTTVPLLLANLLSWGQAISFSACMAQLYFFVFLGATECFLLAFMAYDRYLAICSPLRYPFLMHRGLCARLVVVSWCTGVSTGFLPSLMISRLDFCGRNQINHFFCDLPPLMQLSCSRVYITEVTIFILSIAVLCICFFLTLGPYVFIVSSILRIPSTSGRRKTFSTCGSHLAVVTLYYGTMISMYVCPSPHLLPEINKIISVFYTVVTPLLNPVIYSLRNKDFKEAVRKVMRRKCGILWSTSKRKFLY
Method: as §1
All odorants were stored in the dark at 4°C upon delivery. […]
(§4) In this assay, the interaction of an odorant with its cognate olfactory receptor leads to the activation of the human Gαolf G-protein. […] The cells were then transferred into an automated fluorometric imaging plate reader (FLIPR^TETRA, Molecular Devices). […]
(§5) The data obtained from different well replicates were analyzed with Excel, ScreenWorks, and SigmaPlot 10. […] The mean and standard deviation of the resulting fold of change values were calculated and plotted in vertical bar charts or concentration-response curves fitted by the SigmaPlot 10 software. […]

[5] = tested on: seven other OR11A1-related olfactory receptors; assay: CRE-luciferase reporter assay on OR11A1 related receptors; format: cell-based, human; conditions: 10/30/100 µM
Method: as §1, §2, §3
In this assay, the interaction of an odorant with its cognate olfactory receptor leads to the activation of the human Gαolf G-protein. Gαolf is a stimulatory G-protein (Gαs) and activates adenylate cyclase, which converts adenosine triphosphate (ATP) into cAMP. Therefore, the activity of the transcribed luciferase can be used as an indication of olfactory receptor activation. […] The cells were then transferred into an automated fluorometric imaging plate reader (FLIPR^TETRA, Molecular Devices). […]
as §5

[6] = tested on: 65 human olfactory receptors; assay: Screening against the set of 65 human olfactory receptors (CRE-luciferase); format: cell-based; conditions: 10 µM; including negative control receptor hTAS2R16
Method: as §1, with “Geneticin. […]” for “Geneticin.”
as §4, §5

[7] = biological target: T3, OR7D4 (Homo sapiens, UniProt Q8NG98); assay: CRE-luciferase reporter assay, positive control receptor OR7D4; format: cell-based; conditions: 10 µM
T3 construct: expressed in transfected cells; host or cells: HEKOlf (HEK293 stably expressing human Galpha-olf and bovine CNGA2)
T3 sequence (Q8NG98 1-312): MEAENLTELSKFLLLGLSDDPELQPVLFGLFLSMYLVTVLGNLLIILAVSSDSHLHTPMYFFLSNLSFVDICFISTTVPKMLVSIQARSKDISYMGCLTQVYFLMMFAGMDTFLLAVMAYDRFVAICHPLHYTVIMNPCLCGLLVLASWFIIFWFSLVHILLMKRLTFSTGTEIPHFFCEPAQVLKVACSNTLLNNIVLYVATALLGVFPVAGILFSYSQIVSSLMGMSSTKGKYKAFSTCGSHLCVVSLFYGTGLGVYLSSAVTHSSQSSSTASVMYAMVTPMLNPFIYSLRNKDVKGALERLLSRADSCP
Method: as §1
All transient transfections were performed with Lipofectamine 2000 (Invitrogen) according to the manufacturer's protocol. […]
as §4, §5

[8] = Example 4, 3, 10 and 30 µM (Figure 5)

Compound: CCC1(O)C2(C)CCC(C2)C1(C)C (stereo not shown) [2-ethylfenchol]
activation of OR11A1 [2]: activation of OR11A1

Compound: Cc1cc(O)c(C(=O)CCC(C)C)c(=O)o1 [Pogostone, pogostone]
retained initial concentration ([3]; after 1 hour on scent strip): at least 10%
POG (GC-MS signal), mean value ([3]; t0): 1.11E+06
Ratio POG/IS, mean value ([3]; t0): 2.61E-01
POG (GC-MS signal), mean value ([3]; t0+1h): 9.55E+05
Ratio POG/IS, mean value ([3]; t0+1h): 2.08E-01
POG (GC-MS signal), sample 1-3 ([3]; t0+1h): 1.05E+06 and 9.11E+05 and 9.09E+05
Ratio POG/IS, sample 1-3 ([3]; t0+1h): 2.22E-01 and 1.98E-01 and 2.03E-01
POG (GC-MS signal), mean value ([3]; t0+2h): 8.34E+05
Ratio POG/IS, mean value ([3]; t0+2h): 1.82E-01
POG (GC-MS signal), sample 1-3 ([3]; t0+2h): 8.11E+05 and 8.75E+05 and 8.15E+05
Ratio POG/IS, sample 1-3 ([3]; t0+2h): 1.75E-01 and 1.87E-01 and 1.85E-01
POG (GC-MS signal), sample 1-3 ([3]; t0): 1.17E+06 and 1.06E+06 and 1.09E+06
Ratio POG/IS, sample 1-3 ([3]; t0): 2.92E-01 and 2.45E-01 and 2.48E-01
EC50 [1]: 14.8 ± 3.3 µM
Potency and efficacy on OR11A1 (comparison between odorants) ([1]; Example 4): comparable
activation of OR11A1 [1, 8]: able to elicit activation

Compound: CC1(C)C2CCC3(C)C4C(CCC13O)C24 (stereo not shown) [Patcho 315, 6a,7,7-trimethyldecahydro-1,4-methanocyclopropa[de]naphtalen-1-ol]
response in cells transfected with OR11L1 [4]: unable to elicit a detectable response
activation of OR11A1 ([1]; Example 3, 10/30/100 µM): strongly activated
EC50 [1]: 2.9 ± 0.9 µM
Potency and efficacy on OR11A1 (comparison between odorants) ([1]; Example 4): highest
activation of OR11A1 [1, 8]: strongly activated
fold of change ([5]; Example 3, figure 4): around 1
response of seven other OR11A1-related olfactory receptors ([5]; Example 3): none of the seven other OR11A1-related olfactory receptors responded

Compound: C[C@]12CCC(=O)C[C@@H]1CC[C@@H]1[C@@H]2CC[C@]2(C)C=CC[C@@H]12 [androstenone]
response of the 65 olfactory receptors tested [6]: did not respond
activation of OR7D4 [7]: robustly activated

More lines, now with the values ahead:

activation of OR11A1 ([1]; Example 4, up to 100µM): did not activate
Compound: CC1(C)CCC[C@]2(O)C(C)(C)[C@H]3CC[C@@]12C3 [Terranol, terranol]

EC50 [1]: 10.7 ± 2.6 µM
Potency and efficacy on OR11A1 (comparison between odorants) ([1]; Example 4): comparable
activation of OR11A1 [1, 8]: able to elicit activation
Compound: norpatchouli alcohol

activation of OR11A1 ([1]; Example 4, up to 100µM): did not activate
Compound: CC1CCC2C(C)(C)C3CC12CC1OC13C (stereo not shown) [andrane]

Source: patent EP2832347B1, “Method for identifying patchouli odorant materials” (Takasago International Corporation, priority 2013, dated 2015)
